Source: the supplement of paper PMC10307832

Columns and labels:
Assay in all cases: relative viability (nuclei count vs DMSO), 5 days (fraction); higher = more cells survive
[1] = compound: COc1cc2ncn(-c3cc(OCc4ccccc4C(F)(F)F)c(C(N)=O)s3)c2cc1OC + O=C(CCCCCCC(=O)Nc1ccccc1)NO [Vorinostat] (partner 1 µM)
Procedure, shortened: (§1)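 Lung cancer cell lines in 1536-well plates were dosed by pin tool the day after seeding, either with one drug alone or with a fixed anchor-drug dose plus five library-drug doses (not always all listed) in √10 steps. After 5 days, cells were fixed and their nuclei stained in one step (final 0.05% Triton X-100, 1% formaldehyde, 1 ug/ml Hoechst), then counted on 4× images. Relative viability is the nuclei count in treated wells divided by that in vehicle wells. Values are medians of duplicate plates.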

[2] = compound: COc1cc2ncn(-c3cc(OCc4ccccc4C(F)(F)F)c(C(N)=O)s3)c2cc1OC + Nc1nc2[nH]cc(CCc3ccc(C(=O)N[C@@H](CCC(=O)O)C(=O)O)cc3)c2c(=O)[nH]1 [Pemetrexed] (partner 0.2 µM)
Procedure, shortened: as §1

[3] = compound: COc1cc2ncn(-c3cc(OCc4ccccc4C(F)(F)F)c(C(N)=O)s3)c2cc1OC + Cc1nc(Nc2ncc(C(=O)Nc3c(C)cccc3Cl)s2)cc(N2CCN(CCO)CC2)n1 [Dasatinib] (partner 0.075 µM)
Procedure, shortened: as §1

[4] = compound: COc1cc2ncn(-c3cc(OCc4ccccc4C(F)(F)F)c(C(N)=O)s3)c2cc1OC + CC(=O)c1c(C)c2cnc(Nc3ccc(N4CCNCC4)cn3)nc2n(C2CCCC2)c1=O [Palbociclib] (partner 0.5 µM)
Procedure, shortened: as §1

Cell Line	relative viability ([1]; first compound 0.05 µM)	relative viability ([1]; first compound 0.1581 µM)	relative viability ([1]; first compound 0.5 µM)	relative viability ([1]; first compound 1.581 µM)	relative viability ([1]; first compound 5 µM)	relative viability ([2]; first compound 0.05 µM)	relative viability ([2]; first compound 0.1581 µM)	relative viability ([2]; first compound 0.5 µM)	relative viability ([2]; first compound 1.581 µM)	relative viability ([2]; first compound 5 µM)	relative viability ([3]; first compound 0.05 µM)	relative viability ([3]; first compound 0.1581 µM)	relative viability ([3]; first compound 0.5 µM)	relative viability ([3]; first compound 1.581 µM)	relative viability ([3]; first compound 5 µM)	relative viability ([4]; first compound 0.05 µM)	relative viability ([4]; first compound 0.1581 µM)	relative viability ([4]; first compound 0.5 µM)	relative viability ([4]; first compound 1.581 µM)	relative viability ([4]; first compound 5 µM)
NCI-H2087	0.639	0.573	0.163	0.0594	0.121	0.617	0.684	0.414	0.11	0.106	0.8	0.656	0.583	0.117	0.075	0.232	0.185	0.24	0.0808	0.106
NCI-H2126	0.847	0.759	0.401	0.236	0.216	0.75	0.655	0.498	0.288	0.251	0.584	0.638	0.463	0.248	0.221	0.373	0.31	0.348	0.273	0.265
NCI-H2170	0.834	0.725	0.386	0.128	0.125	0.251	0.268	0.26	0.184	0.162	0.545	0.406	0.374	0.163	0.156	0.401	0.371	0.212	0.165	0.148
NCI-H2228	0.283	0.575	0.196	0.111	0.104	0.329	0.352	0.265	0.153	0.238	0.381	0.472	0.176	0.132	0.181	0.767	0.328	0.352	0.192	0.259
NCI-H2342	0.917	0.744	0.595	0.693	0.527	0.773	0.782	0.56	0.518	0.655	0.325	0.354	0.279	0.278	0.237	0.519	0.509	0.513	0.437	0.422
NCI-H2347	0.551	0.658	0.407	0.445	0.302	0.455	0.434	0.403	0.364	0.33	0.32	0.258	0.278	0.228	0.258	0.373	0.413	0.397	0.377	0.375
NCI-H2405	1.21	0.676	0.38	0.386	0.254	1.12	1.01	0.399	0.377	0.367	0.24	0.21	0.171	0.162	0.131	0.511	0.508	0.382	0.343	0.332
NCI-H3122	1	0.596	0.357	0.13	0.13	0.21	0.196	0.16	0.124	0.11	0.895	0.562	0.373	0.125	0.0999	0.189	0.202	0.148	0.14	0.13
